From patent US10040788B2, “1,3,4-thiadiazole compounds and their use in treating cancer” (AstraZeneca AB, priority 2014, dated 2018)

Columns and labels:
NCI-H1703 cells = experiment: GLS Cell Proliferation Assay (NCI-H1703); format: cell-based, human; details: Homo sapiens, 120 h; NCI-H1703 cells, 5 days incubation; geometric mean where repeated; read-out: Assay c) GLS Cell Proliferation Assay
NCI-H3122 xenograft = experiment: Mouse Xenograft Model, monotherapy (NCI-H3122); format: in vivo; details: Female Harlan Nude mice, NCI-H3122 s.c., 50 mg/kg once daily peroral for 17 days
Procedure: Female Harlan Nude mice were transplanted s.c. with human NSCLC NCI-H3122 cells to determine the in-vivo anti-tumour activity of GLS inhibitors. 5×10^6 cells in 50% matrigel (BD Bioscience) were injected s.c. on the left flank of the animals. Animals were randomised into groups of 10-15 when tumours reached a volume of ˜200-300 mm^3 and treatment commenced. […] Tumours were measured twice weekly by calliper and volume of tumours calculated using elliptical formula (π/6×width×width×length). Statistical significance was evaluated using a one tailed, t-test. Example 2 was formulated in a 1% Polysorbate 80 and pH adjusted with 1M HCL to a final pH concentration of pH3.5. Data is presented as mean tumour volume with calculated mean standard error bars.

NCI-H1703 xenograft = experiment: Mouse Xenograft Model, combination therapy (NCI-H1703); format: in vivo; details: Male Scid mice, NCI-H1703 s.c.
Procedure: Male Scid mice were transplanted s.c. with human NSCLC NCI-H1703 cells (ATCC-CRL-5889) to determine the in-vivo anti-tumour activity of GLS inhibitors. 1×10^7 cells in 50% matrigel (BD Bioscience) were injected s.c. on the left flank of the animals.
Animals were randomised into groups of 10-12 when tumours reached a volume of ˜200-300 mm^3 and treatment commenced. […] Tumours were measured twice weekly by calliper and volume of tumours calculated using elliptical formula (π/6×width×width×length). Statistical significance was evaluated using a one tailed, t-test. Taxotere® (Sanofi) was formulated in a physiological saline. Example 2 was formulated in a 1% Polysorbate 80 and pH adjusted with 1M HCL to a final pH concentration of pH3.5. Data is presented as mean tumour volume with calculated mean standard error bars.

IC50 (NCI-H1703 cells): 4.85 nM
Compound: CO[C@H](C(=O)Nc1nnc(N[C@@H]2CCN(c3cccnn3)C2)s1)c1ccccc1 [Example 2(a), (2S)-2-Methoxy-2-phenyl-N-[5-[[(3R)-1-pyridazin-3-ylpyrrolidin-3-yl]amino]-1,3,4-thiadiazol-2-yl]acetamide]
Tumour growth (mean tumour volume), FIG. 2 (NCI-H3122 xenograft): inhibition of growth in-vivo
Tumour growth (mean tumour volume), FIG. 3 (NCI-H1703 xenograft; 100 mg/kg once daily peroral for 16 days in combination with once weekly i.v. Taxotere, compared to Taxotere monotherapy): slight regression
Tumour growth (mean tumour volume), FIG. 3 (NCI-H1703 xenograft; 100 mg/kg once daily peroral for 16 days, monotherapy): inhibition of growth in-vivo
